# Marks after values point to notes of the source that are not given here.
# Legend:
# [1] = tested on: chloroform-induced ventricular fibrillation in the mouse; test: Chloroform-induced ventricular fibrillation in the mouse (effect on vagal dysfunction), without and with atropine; assay type: in vivo; conditions: n = 10, untreated control 100%; for Proportion of fibrillation (in %) with atropine (1 mg/kg i.v.): plus atropine 1 mg/kg i.v.
# Method: The substances were investigated using the model of chloroform-induced ventricular fibrillation in the mouse (see J. W. Lawson, Antiarrhythmic activity of some isoquinoline derivatives determined by a rapid screening procedure in the mouse; J. Pharmacol. Exp. Ther. 1968, 160, 22-31). […] After 30 minutes, the mouse was anesthetized with chloroform in a beaker. As soon as, in deep anesthesia, respiratory arrest had occurred (toxic anesthesia stage), the thorax of the animal was opened using a pair of scissors and the heartbeat was inspected visually. Here, it is possible to determine on first sight whether the heart is beating, fibrillating or arrested. The respiratory arrest triggered by chloroform leads, via absolute anoxia (lack of oxygen) in combination with a direct stimulating effect of chloroform on the sympathetic nervous system, to a potent stimulation of the sympathicus, which in turn in combination with the energy deficit in the heart caused by lack of oxygen results in fatal arrhythmia, i.e. ventricular fibrillation. This toxic chloroform anesthesia led to ventricular fibrillation in 100% of the untreated mice (control).
# [2] = tested on: chloroform-induced ventricular fibrillation in the mouse; test: Chloroform-induced ventricular fibrillation in the mouse: combinations of compounds of the formula I with beta-receptor blockers; assay type: in vivo; conditions: n = 30, untreated control 100%
# Method: The substances were investigated using the model of chloroform-induced ventricular fibrillation in the mouse (see J. W. Lawson, Antiarrhythmic activity of some isoquinoline derivatives determined by a rapid screening procedure in the mouse; J. Pharmacol. Exp. Ther. 1968, 160, 22-31). The test substance was dissolved in a mixture of dimethyl sulfoxide (DMSO) and 10% strength sodium bicarbonate solution and administered intraperitoneally (i.p.). After 30 minutes, the mouse was anesthetized with chloroform in a beaker. As soon as, in deep anesthesia, respiratory arrest had occurred (toxic anesthesia stage), the thorax of the animal was opened using a pair of scissors and the heartbeat was inspected visually. Here, it is possible to determine on first sight whether the heart is beating, fibrillating or arrested. The respiratory arrest triggered by chloroform leads, via absolute anoxia (lack of oxygen) in combination with a direct stimulating effect of chloroform on the sympathetic nervous system, to a potent stimulation of the sympathicus, which in turn in combination with the energy deficit in the heart caused by lack of oxygen results in fatal arrhythmia, i.e. ventricular fibrillation. This toxic chloroform anesthesia led to ventricular fibrillation in 100% of the untreated mice (control).
# The active compounds were administered i.v. (intravenously) or i.p. (intraperitoneally). In one experiment, 10 mg/kg of 1-[[5-[2-(5-chloro-2-methoxybenzamido)ethyl]-2-methoxyphenyl]sulfonyl]-3-methylthiourea sodium salt (see Example 4; dissolved in DMSO/10% strength sodium bicarbonate solution) were combined with 0.3 mg/kg of propanolol (dissolved in distilled water), a standard beta-blocker. […] The proportion of fibrillation could be lowered further than with the individual substances, in a statistically significant manner. For comparison, a 10 times higher dose of 3 mg/kg of propanolol was used. […] In another experiment, 3 mg/kg of 1-[[5-[2-(5-tert-butyl-2-methoxybenzamido)ethyl]-2-methoxyphenyl]sulfonyl]-3-methylthiourea (Example 1) and 3 mg/kg of atenolol were combined in an analogous manner.
# [3] = 3 mg/kg i.p., chloroform anesthesia after 30 minutes
compound,measurement,setting,value
CNC(=S)NS(=O)(=O)c1cc(CCNC(=O)c2cc(Cl)ccc2OC)ccc1OC.[Na] [1-[[5-[2-(5-chloro-2-methoxybenzamido)ethyl]-2-methoxyphenyl]sulfonyl]-3-methylthiourea sodium salt],Proportion of fibrillation (in %) without atropine,[1]; 10 mg/kg i.p.,50%#
same,Proportion of fibrillation (in %) with atropine (1 mg/kg i.v.),[1]; 10 mg/kg i.p.,90%*
same,Proportion of fibrillation in %,[2]; single substance 10 mg/kg i.v.,50%*
"CNC(=S)NS(=O)(=O)c1cc(CCNC(=O)c2cc(C(C)(C)C)ccc2OC)ccc1OC [Example 1, 1-[[5-[2-(5-tert-Butyl-2-methoxybenzamido)ethyl]-2-methoxyphenyl]sulfonyl]-3-methylthiourea]",Proportion of fibrillation (in %) without atropine,[1]; [3],30%#
same,Proportion of fibrillation (in %) with atropine (1 mg/kg i.v.),[1]; 3 mg/kg i.p.,90%*
same,Proportion of fibrillation in %,[2]; single substance 3 mg/kg i.p.,53%*
"CNC(=O)NS(=O)(=O)c1cc(CCNC(=O)c2cc(C(C)(C)C)ccc2OC)ccc1OC [Example 2, 1-[[5-[2-(5-tert-Butyl-2-methoxybenzamido)ethyl]-2-methoxyphenyl]sulfonyl]-3-methylurea]",Proportion of fibrillation (in %) without atropine,[1]; 1 mg/kg i.p.,60%#
same,Proportion of fibrillation (in %) with atropine (1 mg/kg i.v.),[1]; 1 mg/kg i.p.,100%*
"CNC(=S)NS(=O)(=O)c1cc(CCNC(=O)c2cc(C(C)C)ccc2OC)ccc1OC [Example 3, 1-[[5-[2-(5-lsopropyl-2-methoxybenzamido)ethyl]-2-methoxyphenyl]sulfonyl]-3-methylthiourea]",Proportion of fibrillation (in %) without atropine,[1]; [3],60%#
"CNC(=S)NS(=O)(=O)c1cc(CCNC(=O)c2cc(Cl)ccc2OC)ccc1OCCOC [Example 5, 1-[[5-[2-(5-Chloro-2-methoxybenzamido)ethyl]-2-(2-methoxyethoxy)phenyl]sulfonyl]-3-methylthiourea]",Proportion of fibrillation (in %) without atropine,[1]; 10 mg/kg i.p.,60%#
same,Proportion of fibrillation (in %) with atropine (1 mg/kg i.v.),[1]; 10 mg/kg i.p.,100%*
CC(C)NCC(O)COc1ccc(CC(N)=O)cc1 (stereo not drawn) [atenolol],Proportion of fibrillation in %,[2]; single substance 3 mg/kg i.v.,48%*
"C[N+](C)(C)CCOC(N)=O [carbachol, reference compound]",Proportion of fibrillation (in %) without atropine,[1]; 60 μg/kg i.v.,60%#
same,Proportion of fibrillation (in %) with atropine (1 mg/kg i.v.),[1]; 60 μg/kg i.v.,100%*
"CNC(=O)Oc1ccc2c(c1)[C@]1(C)CCN(C)[C@@H]1N2C [physostigmine, reference compound]",Proportion of fibrillation (in %) without atropine,[1]; 1 mg/kg s.c.,70%#
same,Proportion of fibrillation (in %) with atropine (1 mg/kg i.v.),[1]; 1 mg/kg s.c.,100%*
CC(C)NCC(O)COc1cccc2ccccc12 (stereo not drawn) [propranolol],Proportion of fibrillation in %,[2]; single substance 0.3 mg/kg i.v.,37%*
same,Proportion of fibrillation in %,[2]; single substance 3 mg/kg i.v.,17%*

# Source: patent US6414030B1, “Use of benzenesulfonyl(thio)ureas for the treatment and prophylaxis of dysfunctions of the autonomous nervous system and use of benzenesulfonyl(thio)ureas in combination with beta-receptors blockers” (Aventis Pharma Deutschland, GmbH, priority 1998, dated 2002)
